Measured values: patent publication US12091409B2, “Ether linked triazoles as NRF2 activators” (ASTEX THERAPEUTICS LIMITED, priority 2016, dated 2024)

These compounds were tested on NQO1 specific enzyme activity in BEAS-2B cells (marker for NRF2 activation) (assay: BEAS-2B NQO1 MTT Assay). Settings: Homo sapiens, BEAS-2B, 48 h, NQO1 specific activity induction, 48 hours with compound.
Format: cell-based
Text: NAD(P)H:quinone oxidoreductase 1 (NQO1), also called DT diaphorase, is a homodimeric FAD-containing enzyme that catalyzes obligatory NAD(P)H-dependent two-electron reductions of quinones and protects cells against the toxic and neoplastic effects of free radicals and reactive oxygen species arising from one-electron reductions. The transcription of NQO1 is finely regulated by NRF2, and thus NQO1 activity is a good marker for NRF2 activation. On day one, frozen BEAS-2B cells (ATCC) were thawed in a water bath, counted, and re-suspended at a concentration of 250,000 cells/mL. Fifty microliters of cells were plated in 384 well black clear-bottomed plates. Plates were incubated at 37° C., 5% CO2 overnight. On day two, plates were centrifuged and 50 nL of compound or controls were added to the cells. Plates were then incubated at 37° C., 5% CO2 for 48 hours. On day four, medium was aspirated from the plate and crude cell lysates were made by adding 13 uL of 1× Cell Signaling Technologies lysis buffer with 1 Complete, Mini, EDTA-free Protease Inhibitor Tablet (Roche) for each 10 mL of lysis buffer. After lysis plates were incubated for 20 minutes at room temperature. Two microliters of lysate were removed for use in Cell Titer Glo assay (Promega) and MTT cocktail was prepared (Prochaska et. al. 1998) for measurement of NQO1 activity. Fifty microliters of MTT cocktail was added to each well, plate was centrifuged, and analyzed on an Envision plate reader (Perkin Elmer) using Absorbance 570 nm label for 30 minutes. Product formation was measured kinetically and the pEC50 of NQO1 specific activity induction was calculated by plotting the change in absorbance (Delta OD/min) versus the log of compound concentration followed by 3-parameter fitting.
pEC50 is the negative log of the EC50.
EC50s<1 nM (+++++), EC50s 1 nM-10 nM (++++), EC50s 10 nM-100 nM (+++), EC50s 100 nM-1 uM (++), EC50s 1 uM-10 uM (+); EC50s>10 uM (−), or were not determined (ND).
Compound `Cc1ccc([C@H](OCc2cn(Cc3ccc(Cn4cc(CO[C@@H](c5ccc(C)c(CN6C[C@@H](C)Oc7ccccc7S6(=O)=O)c5)C(C)(C)C(=O)O)nn4)cc3)nn2)C(C)(C)C(=O)O)cc1CN1C[C@@H](C)Oc2ccccc2S1(=O)=O` (relative stereo) [Example 46, (R,rel-(3S,3'S))-3,3′-(((1,1′-(1,4-phenylenebis(methylene))bis(1H-1,2,3-triazole-4,1-diyl))bis(methylene))bis(oxy))bis(2,2-dimethyl-3-(4-methyl-3-(((R)-4-methyl-1,1-dioxido-3,4-dihydro-2H-benzo[b][1,4,5]oxathiazepin-2-yl)methyl)phenyl)propanoic acid)] has an EC50 of 0.01 to 0.1 µM.
In the case of `Cc1ccc([C@@H](OCc2cn(Cc3ccc(Cn4cc(CO[C@H](c5ccc(C)c(CN6C[C@@H](C)Oc7ccccc7S6(=O)=O)c5)C(C)(C)C(=O)O)nn4)cc3)nn2)C(C)(C)C(=O)O)cc1CN1C[C@@H](C)Oc2ccccc2S1(=O)=O` (relative stereo) [Example 49, (R,rel-(3R,3′R))-3,3′-(((1,1′-(1,4-phenylenebis(methylene))bis(1H-1,2,3-triazole-4,1-diyl))bis(methylene))bis(oxy))bis(2,2-dimethyl-3-(4-methyl-3-(((R)-4-methyl-1,1-dioxido-3,4-dihydro-2H-benzo[b][1,4,5]oxathiazepin-2-yl)methyl)phenyl)propanoic acid)], the EC50 is reported as 0.1 to 1 µM.
`Cc1ccc([C@H](OCc2cn(CCOCCn3cc(CO[C@@H](c4ccc(C)c(CN5C[C@@H](C)Oc6ccccc6S5(=O)=O)c4)C(C)(C)C(=O)O)nn3)nn2)C(C)(C)C(=O)O)cc1CN1C[C@@H](C)Oc2ccccc2S1(=O)=O` (relative stereo) [Example 50, (R,rel-3S, rel-3′S)-3,3′-(((1,1′-(oxybis(ethane-2,1-diyl))bis(1H-1,2,3-triazole-4,1-diyl))bis(methylene))bis(oxy))bis(2,2-dimethyl-3-(4-methyl-3-(((R)-4-methyl-1,1-dioxido-3,4-dihydro-2H-benzo[b][1,4,5]oxathiazepin-2-yl)methyl)phenyl)propanoic acid)] was tested, and the EC50 was 0.01 to 0.1 µM.
In the case of `Cc1ccc([C@@H](OCc2cn(CCOCCn3cc(CO[C@H](c4ccc(C)c(CN5C[C@@H](C)Oc6ccccc6S5(=O)=O)c4)C(C)(C)C(=O)O)nn3)nn2)C(C)(C)C(=O)O)cc1CN1C[C@@H](C)Oc2ccccc2S1(=O)=O` (relative stereo) [Example 51, (R,rel-3R, rel-3′R)-3,3′-(((1,1′-(oxybis(ethane-2,1-diyl))bis(1H-1,2,3-triazole-4,1-diyl))bis(methylene))bis(oxy))bis(2,2-dimethyl-3-(4-methyl-3-(((R)-4-methyl-1,1-dioxido-3,4-dihydro-2H-benzo[b][1,4,5]oxathiazepin-2-yl)methyl)phenyl)propanoic acid)], the EC50 is reported as 1 to 10 µM.
`Cc1ccc(C(OCc2cn(CCOCCN=[N+]=[N-])nn2)C(C)(C)C(=O)O)cc1CN1C[C@@H](C)Oc2ccccc2S1(=O)=O` (single isomer, unassigned) [Example 14] was tested, and the EC50 was 0.001 to 0.01 µM.
Compound `Cc1ccc([C@@H](OCc2cn(CCOCCN=[N+]=[N-])nn2)C(C)(C)C(=O)O)cc1CN1C[C@@H](C)Oc2ccccc2S1(=O)=O` (single isomer, unassigned) [Example 15] has an EC50 of 0.01 to 0.1 µM.
`Cc1ccc(C(OCc2cn(CC3CC[N+]4(CCOCC4)CC3)nn2)C(C)(C)C(=O)O)cc1CN1CC(C)Oc2ccccc2S1(=O)=O` (stereo in doubt) [Example 56, 3-((1-(3-Oxa-6-azaspiro[5.5]undecan-6-ium-9-ylmethyl)-1H-1,2,3-triazol-4-yl)methoxy)-2,2-dimethyl-3-(4-methyl-3-(((S)-4-methyl-1,1-dioxido-3,4-dihydro-2H-benzo[b][1,4,5]oxathiazepin-2-yl)methyl)phenyl)propanoate] was tested, and the EC50 was 1 to 10 µM.
With `CCn1cc(CO[C@@H](c2ccc(C)c(CN3CC(C)Cc4ccncc4S3(=O)=O)c2)C(C)(C)C(=O)O)nn1` (stereo in doubt) [Example 73, (3S)-((1-ethyl-1H-1,2,3-triazol-4-yl)methoxy)-2,2-dimethyl-3-(4-methyl-3-(((R)-4-methyl-1,1-dioxido-4,5-dihydropyrido[4,3-f][1,2]thiazepin-2(3H)-yl)methyl)phenyl)propanoic acid] the EC50 was 0.01 to 0.1 µM.
`Cc1ccc(C(OCc2cn(Cc3cccc(Br)c3)nn2)C(C)(C)C(=O)O)cc1CN1C[C@@H](C)Oc2ccccc2S1(=O)=O` (stereo partly drawn) [Example 1, 3-((1-(3-Bromobenzyl)-1H-1,2,3-triazol-4-yl)methoxy)-2,2-dimethyl-3-(4-methyl-3-(((R)-4-methyl-1,1-dioxido-3,4-dihydro-2H-benzo[b][1,4,5]oxathiazepin-2-yl)methyl)phenyl)propanoic acid] was tested, and the EC50 was < 0.001 µM.
For `C#CCOC(c1ccc(C)c(CN2C[C@@H](C)Oc3ccccc3S2(=O)=O)c1)C(C)(C)C(=O)O` (stereo partly drawn) [Example 2, 2,2-Dimethyl-3-(4-methyl-3-(((R)-4-methyl-1,1-dioxido-3,4-dihydro-2H-benzo[b][1,4,5]oxathiazepin-2-yl)methyl)phenyl)-3-(prop-2-yn-1-yloxy)propanoic acid], the EC50 was 0.1 to 1 µM.
With `Cc1ccc(C(OCc2cn(Cc3cccc(CN=[N+]=[N-])c3)nn2)C(C)(C)C(=O)O)cc1CN1C[C@@H](C)Oc2ccccc2S1(=O)=O` (stereo partly drawn) [Example 3, 3-((1-(3-(Azidomethyl)benzyl)-1H-1,2,3-triazol-4-yl)methoxy)-2,2-dimethyl-3-(4-methyl-3-(((R)-4-methyl-1,1-dioxido-3,4-dihydro-2H-benzo[b][1,4,5]oxathiazepin-2-yl)methyl)phenyl)propanoic acid] the EC50 was < 0.001 µM.
With `CCCn1cc(COC(c2ccc(C)c(CN3C[C@@H](CC)Oc4ccccc4S3(=O)=O)c2)C(C)(C)C(=O)O)nn1` (stereo partly drawn) [Example 4, 3-(3-(((R)-4-ethyl-1,1-dioxido-3,4-dihydro-2H-benzo[b][1,4,5]oxathiazepin-2-yl)methyl)-4-methylphenyl)-2,2-dimethyl-3-((1-propyl-1H-1,2,3-triazol-4-yl)methoxy)propanoic acid] the EC50 was < 0.001 µM.
For `CC[C@@H]1CN(Cc2cc([C@@H](OCc3cn(CC)nn3)C(C)(C)C(=O)O)ccc2C)S(=O)(=O)c2ccccc2O1` [Example 5, (R)-3-(3-(((R)-4-ethyl-1,1-dioxido-3,4-dihydro-2H-benzo[b][1,4,5]oxathiazepin-2-yl)methyl)-4-methylphenyl)-3-((1-ethyl-1H-1,2,3-triazol-4-yl)methoxy)-2,2-dimethylpropanoic acid], the EC50 was < 0.001 µM.
Work on `CC[C@@H]1CN(Cc2cc([C@H](OCc3cn(CC)nn3)C(C)(C)C(=O)O)ccc2C)S(=O)(=O)c2ccccc2O1` [Example 6, (S)-3-(3-(((R)-4-ethyl-1,1-dioxido-3,4-dihydro-2H-benzo[b][1,4,5]oxathiazepin-2-yl)methyl)-4-methylphenyl)-3-((1-ethyl-1H-1,2,3-triazol-4-yl)methoxy)-2,2-dimethylpropanoic acid] yielded an EC50 of 0.001 to 0.01 µM.
In the case of `CC[C@@H]1CN(Cc2cc(C(OCc3cn(Cc4ccccc4)nn3)C(C)(C)C(=O)O)ccc2C)S(=O)(=O)c2ccccc2O1` (stereo partly drawn) [Example 7, 3-((1-Benzyl-1H-1,2,3-triazol-4-yl)methoxy)-3-(3-(((R)-4-ethyl-1,1-dioxido-3,4-dihydro-2H-benzo[b][1,4,5]oxathiazepin-2-yl)methyl)-4-methylphenyl)-2,2-dimethylpropanoic acid], the EC50 is reported as < 0.001 µM.
`CCCn1cc(COC(c2ccc(C)c(CN3C[C@@H](C)Oc4ccccc4S3(=O)=O)c2)C(C)(C)C(=O)O)nn1` (stereo partly drawn) [Example 8, 2,2-Dimethyl-3-(4-methyl-3-(((R)-4-methyl-1,1-dioxido-3,4-dihydro-2H-benzo[b][1,4,5]oxathiazepin-2-yl)methyl)phenyl)-3-((1-propyl-1H-1,2,3-triazol-4-yl)methoxy)propanoic acid] gave an EC50 of 0.001 to 0.01 µM.
`CCCn1cc(COC(c2ccc(C)c(CN3CC(C)(C)Oc4ccccc4S3(=O)=O)c2)C(C)(C)C(=O)O)nn1` (stereo not drawn) [Example 9, 3-(3-((4,4-Dimethyl-1,1-dioxido-3,4-dihydo-2H-benzo[b][1,4]oxathiazepin-2-yl)methyl)-4-methylphenyl)-2,2-dimethyl-3-((1-propyl-1H-1,2,3-triazol-4-yl)methoxy)-propanoic acid] was tested, and the EC50 was 0.001 to 0.01 µM.

Same assay, conditions: NQO1 specific activity induction, 48 hours with compound
`Cc1ccc(C(OCc2cn(CC(C)C)nn2)C(C)(C)C(=O)O)cc1CN1C[C@@H](C)Oc2ccccc2S1(=O)=O` (single isomer, unassigned) [Example 13] showed an EC50 of 0.001 to 0.01 µM.
`Cc1ccc(C(OCc2cn(CC(C)C)nn2)C(C)(C)C(=O)O)cc1CN1C[C@@H](C)Oc2ccccc2S1(=O)=O` (single isomer, unassigned) [Example 16] showed an EC50 of 0.01 to 0.1 µM.
`Cc1ccc(C(OCc2cn(C3COC3)nn2)C(C)(C)C(=O)O)cc1CN1C[C@@H](C)Cc2ccncc2S1(=O)=O` (single isomer, unassigned) [Example 102] showed an EC50 of 0.01 to 0.1 µM.
`Cc1ccc(C(OCc2cn(C3COC3)nn2)C(C)(C)C(=O)O)cc1CN1C[C@@H](C)Cc2ccncc2S1(=O)=O` (single isomer, unassigned) [Example 103] showed an EC50 of 0.001 to 0.01 µM.
